{"source": "patent US6706757B2", "about": "“Chroman derivatives as 5-hydroxytryptamine-6 ligands” (Wyeth, priority 2001, dated 2004)", "note": "Structures can show the parent of a compound that is named as a salt."}
{"tested_on": "not given", "assay": "not given", "details": "not given"}
{"smiles": "C[C@@H](NCC1CCc2ccc(N(C)S(=O)(=O)c3cccc4ccccc34)cc2O1)c1ccccc1", "note": "(stereo partly drawn) (as salt: HCl) [Example 55, N-methyl-N-[2-({[(1R)-1-phenylethyl]amino}methyl)-3,4-dihydro-2H-chromen-7-yl]naphthalene-1-sulfonamide]", "melting point": "245 to 246 °C"}
{"smiles": "COc1ccc(S(=O)(=O)N(C)c2ccc3c(c2)OC(CN[C@H](C)c2ccccc2)CC3)cc1OC", "note": "(stereo partly drawn) (as salt: HCl) [Example 54, 3,4-dimethoxy-N-methyl-N-[2-({[(1R)-1-phenylethyl]amino}methyl)-3,4-dihydro-2H-chromen-7-yl]benzenesulfonamide]", "melting point": "229 to 230 °C"}
{"smiles": "C[C@@H](NCC1CCc2ccc(N(C)S(=O)(=O)c3ccc(Cl)cc3)cc2O1)c1ccccc1", "note": "(stereo partly drawn) (as salt: HCl) [Example 53, 4-chloro-N-methyl-N-[2-({[(1R)-1-phenylethyl]amino}methyl)-3,4-dihydro-2H-chromen-7-yl]benzenesulfonamide]", "melting point": "198 to 201 °C"}
{"smiles": "C[C@@H](NCC1CCc2ccc(N(C)S(=O)(=O)c3ccc(N)cc3)cc2O1)c1ccccc1", "note": "(stereo partly drawn) (as salt: HCl) [Example 56, 4-amino-N-methyl-N-[2-({[(1R)-1-phenylethyl]amino}methyl)-3,4-dihydro-2H-chromen-7-yl]benzenesulfonamide]", "melting point": "200 °C (dec.)"}
{"smiles": "C[C@@H](NCC1CCc2ccc(N(C)S(=O)(=O)c3ccccc3Br)cc2O1)c1ccccc1", "note": "(stereo partly drawn) (as salt: HCl) [Example 51, 2-bromo-N-methyl-N-[2-({[(1R)-1-phenylethyl]amino}methyl)-3,4-dihydro-2H-chromen-7-yl]benzenesulfonamide]", "melting point": "199 to 201 °C"}
{"smiles": "C[C@@H](NCC1CCc2ccc(N(C)S(=O)(=O)c3ccc(F)cc3)cc2O1)c1ccccc1", "note": "(stereo partly drawn) (as salt: HCl) [Example 52, 4-fluoro-N-methyl-N-[2-({[(1R)-1-phenylethyl]amino}methyl)-3,4-dihydro-2H-chromen-7-yl]benzenesulfonamide]", "melting point": "208 to 210 °C"}
{"molecular_target": "T1, human cloned 5-HT6 receptors (Homo sapiens, UniProt P50406)", "T1 construct": "expressed in transfected cells; host or cells: HeLa cells (membrane preparation)", "T1 sequence (P50406 whole entry)": "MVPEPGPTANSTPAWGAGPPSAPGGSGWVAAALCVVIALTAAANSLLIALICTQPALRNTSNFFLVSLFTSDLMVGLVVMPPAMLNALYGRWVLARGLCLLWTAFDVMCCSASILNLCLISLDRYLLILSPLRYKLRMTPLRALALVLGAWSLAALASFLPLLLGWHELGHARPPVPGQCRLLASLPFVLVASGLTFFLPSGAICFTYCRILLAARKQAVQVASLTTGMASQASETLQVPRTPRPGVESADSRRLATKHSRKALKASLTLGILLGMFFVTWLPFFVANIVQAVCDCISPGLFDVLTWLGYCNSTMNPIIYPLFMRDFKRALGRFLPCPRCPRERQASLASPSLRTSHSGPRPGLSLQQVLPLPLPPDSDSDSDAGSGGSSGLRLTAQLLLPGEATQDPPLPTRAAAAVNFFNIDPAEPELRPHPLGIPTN", "assay": "5-HT6 binding affinity, [3H]-LSD displacement on membranes of Hela cells expressing human cloned 5-HT6 receptors", "details": "[3H]-LSD 3.0 nM, Hela cell membranes, 120 min at room temperature", "protocol": "The affinity of test compounds for the serotonin 5-HT6 receptor is evaluated in the following manner. Cultured Hela cells expressing human cloned 5-HT6 receptors are harvested and centrifuged at low speed (1,000×g) for 10.0 min to remove the culture media. The harvested cells are suspended in half volume of fresh physiological phosphate buffered saline solution and recentrifuged at the same speed. This operation is repeated. The collected cells are then homogenized in ten volumes of 50 mM Tris.HCl (pH 7.4) and 0.5 mM EDTA. The homogenate is centrifuged at 40,000×g for 30.0 min and the precipitate is collected. The obtained pellet is resuspended in 10 volumes of Tris.HCl buffer and recentrifuged at the same speed. The final pellet is suspended in a small volume of Tris.HCl buffer and the tissue protein content is determined in aliquots of 10-25 μl volumes. Bovine Serum Albumin is used as the standard in the protein determination according to the method described in Lowry et al., J. Biol. Chem., 193:265 (1951). The volume of the suspended cell membranes is adjusted to give a tissue protein concentration of 1.0 mg/ml of suspension. The prepared membrane suspension (10 times concentrated) is aliquoted in 1.0 ml volumes and stored at −70° C. until used in subsequent binding experiments.\nBinding experiments are performed in a 96 well microtiter plate format, in a total volume of 200 μl. […] The test compounds are added in 20.0 μl volume.\nThe reaction is allowed to proceed in the dark for 120 min at room temperature, at which time, the bound ligand-receptor complex is filtered off on a 96 well unifilter with a Packard Filtermate® 196 Harvester. The bound complex caught on the filter disk is allowed to air dry and the radioactivity is measured in a Packard TopCount® equipped with six photomultiplier detectors, after the addition of 40.0 μl Microscint®-20 scintillant to each shallow well. The unifilter plate is heat-sealed and counted in a PackardTopCount® with a tritium efficiency of 31.0%.\nBinding in the presence of varying concentrations of test compound is expressed as a percentage of specific binding in the absence of test compound. The results are plotted as log % bound versus log concentration of test compound. […] A linear regression line of data points is plotted, from which the IC50 value is determined and the Ki value is determined based upon the following equation: […]\nwhere L is the concentration of the radioactive ligand used and KD is the dissociation constant of the ligand for the receptor, both expressed in nM.", "units": {"Ki": "nM"}}
{"smiles": "COc1cccc(CNCC2CCc3ccc(NS(=O)(=O)c4ccccc4)cc3O2)c1", "note": "(centres unmarked) [Example 6, N-(2-{[(3-methoxybenzyl)amino]methyl}-3,4-dihydro-2H-chromen-7-yl)benzenesulfonamide]", "Ki": 4}
{"smiles": "C[C@@H](NCC1CCc2ccc(NS(=O)(=O)c3ccc(Cl)s3)cc2O1)c1ccccc1", "note": "(stereo partly drawn) [Example 42, 5-chloro-N-[2-({[(1R)-1-phenylethyl]amino}methyl)-3,4-dihydro-2H-chromen-7-yl]thiophene-2-sulfonamide]", "Ki": 2}
{"smiles": "C[C@@H](NCC1CCc2ccc(N(C)S(=O)(=O)c3ccc(Cl)cc3)cc2O1)c1ccccc1", "note": "(stereo partly drawn) [Example 53, 4-chloro-N-methyl-N-[2-({[(1R)-1-phenylethyl]amino}methyl)-3,4-dihydro-2H-chromen-7-yl]benzenesulfonamide]", "Ki": 5}
{"smiles": "C[C@@H](NCC1CCc2ccc(N(C)S(=O)(=O)c3ccccc3Br)cc2O1)c1ccccc1", "note": "(stereo partly drawn) [Example 51, 2-bromo-N-methyl-N-[2-({[(1R)-1-phenylethyl]amino}methyl)-3,4-dihydro-2H-chromen-7-yl]benzenesulfonamide]", "Ki": 3}
{"smiles": "O=S(=O)(Nc1ccc2c(c1)OC(CNCCCO)CC2)c1ccc(F)cc1", "note": "(centres unmarked) [Example 30, 4-fluoro-N-(2-{[(3-hydroxypropyl)amino]methyl}-3,4-dihydro-2H-chromen-7-yl)benzenesulfonamide]", "Ki": 49}
{"smiles": "O=S(=O)(Nc1ccc2c(c1)OC(CN[C@@H](CO)c1ccccc1)CC2)c1ccccc1", "note": "(stereo partly drawn) [Example 16, N-[2-({[(1R)-2-hydroxy-1-phenylethyl]amino}methyl)-3,4-dihydro-2H-chromen-7-yl]benzenesulfonamide]", "Ki": 5}
{"smiles": "O=S(=O)(Nc1ccc2c(c1)OC(CN1CCSCC1)CC2)c1ccccc1", "note": "(centres unmarked) [Example 26, N-[2-(thiomorpholin-4-ylmethyl)-3,4-dihydro-2H-chromen-7-yl]benzenesulfonamide]", "Ki": 9}
{"smiles": "O=S(=O)(Nc1ccc2c(c1)OC(CNC1CCc3ccccc31)CC2)c1ccccc1", "note": "(centres unmarked) [Example 13, N-{2-[(2,3-dihydro-1H-inden-1-ylamino)methyl]-3,4-dihydro-2H-chromen-7-yl}benzenesulfonamide]", "Ki": 7}
{"smiles": "Cc1ccc(S(=O)(=O)Nc2ccc3c(c2)OC(CN[C@H](C)c2ccccc2)CC3)cc1", "note": "(stereo partly drawn) [Example 37, 4-methyl-N-[2-({[(1R)-1-phenylethyl]amino}methyl)-3,4-dihydro-2H-chromen-7-yl]benzenesulfonamide]", "Ki": 16}
{"smiles": "CC(C)C[C@H](CO)NCC1CCc2ccc(NS(=O)(=O)c3ccccc3)cc2O1", "note": "(stereo partly drawn) [Example 22, N-[2-({[(1R)-1-(hydroxymethyl)-3-methylbutyl]amino}methyl)-3,4-dihydro-2H-chromen-7yl]benzenesulfonamide]", "Ki": 3}
{"smiles": "C[C@@H](NC[C@H]1CCc2ccc(NS(=O)(=O)c3ccccc3)cc2O1)c1ccccc1", "note": "[Example 45A]", "Ki": 1}
{"smiles": "C[C@@H](NCC1CCc2ccc(NS(=O)(=O)c3ccc(Cl)cc3)cc2O1)c1ccccc1", "note": "(stereo partly drawn) [Example 38, 4-chloro-N-[2-({[(1R)-1-phenylethyl]amino}methyl)-3,4-dihydro-2H-chromen-7-yl]benzenesulfonamide]", "Ki": 5}
{"smiles": "CC(C)CCCC(C)NCC1CCc2ccc(NS(=O)(=O)c3ccccc3)cc2O1", "note": "(centres unmarked) [Example 21, N-(2-{[(1,5-dimethylhexyl)amino]methyl}-3,4-dihydro-2H-chromen-7-yl)benzenesulfonamide]", "Ki": 8}
{"smiles": "CCCCOCCCNCC1CCc2ccc(NS(=O)(=O)c3ccccc3)cc2O1", "note": "(centres unmarked) [Example 7, N-(2-{[(3-butoxypropyl)amino]methyl}-3,4-dihydro-2H-chromen-7-yl)benzenesulfonamide]", "Ki": 2}
{"smiles": "C[C@@H](NC[C@@H]1CCc2ccc(NS(=O)(=O)c3ccccc3)cc2O1)c1ccccc1", "note": "[Example 45B, N[(2S)-2-({[(1R)-1-Phenylethyl]amino}methyl)-3,4-dihydro-2H-chromen-7-yl]phenylsulfonamide]", "Ki": 17}
{"smiles": "C[C@@H](NC[C@H]1CCc2ccc(NS(=O)(=O)c3cccc4ccccc34)cc2O1)c1ccccc1", "note": "[Example 46A, N-[(2R)-2-({[(1R)-1-phenylethyl]amino}-methyl)-3,4-dihydro-2H-chromen-7-yl)naphthalene-1-sulfonamide Hydrochloride]", "Ki": 37}
{"smiles": "O=S(=O)(Nc1ccc2c(c1)OC(CN1CCOCC1)CC2)c1ccccc1", "note": "(centres unmarked) [Example 25, N-[2-(morpholin-4-ylmethyl)-3,4-dihydro-2H-chromen-7-yl]benzenesulfonamide]", "Ki": 26}
{"smiles": "C[C@@H](NC[C@@H]1CCc2ccc(NS(=O)(=O)c3ccc(N)cc3)cc2O1)c1ccccc1", "note": "[Example 47B, 4-Amino-N-[(2S)-2-({[(1R)-1-phenylethyl]amino}methyl)-3,4-dihydro-2H-chromen-7-yl]benezenesulfonamide Hydrochloride]", "Ki": 11}
{"smiles": "Cc1c(S(=O)(=O)Nc2ccc3c(c2)OC(CN[C@H](C)c2ccccc2)CC3)sc2ccc(Cl)cc12", "note": "(stereo partly drawn) [Example 36, 5-chloro-3-methyl-N-[2-({[(1R)-1-phenylethyl]amino}methyl)-3,4-dihydro-2H-chromen-7-yl]-1-benzothiophene-2-sulfonamide]", "Ki": 45}
{"smiles": "C[C@@H](NCC1CCc2ccc(NS(=O)(=O)c3ccc(N)cc3)cc2O1)c1ccccc1", "note": "(stereo partly drawn) [Example 44, 4-amino-N-[2-({[(1R)-1-phenylethyl]amino}methyl)-3,4-dihydro-2H-chromen-7-yl]benzenesulfonamide]", "Ki": 1}
